{
  "source": "paper PMC12595484",
  "about": "“Optimizing multifunctional fluorescent ligands for intracellular labeling” (Proceedings of the National Academy of Sciences of the …, 2025)",
  "data": [
    {"test_system": "HEK293T cells expressing msGFP–HaloTag localized to the mitochondrial outer membrane", "experiment": "HEK293T labeling and fluorescence microscopy", "type": "cell-based", "source_text": "Plasmid construction for mitochondria imaging and affinity purification. HaloTag, amplified from the pHTC HaloTag CMV-neo Vector (Promega; G7711) and monomeric-superfolder green fluorescent protein (msGFP; lab stock), was fused to the mitochondrial targeting signal from OMP25,8 interspacing flexible GS(GSS)4 linkers between each domain by PCR Splicing by Overlap Extension (SOE). This construct was subcloned into hSynapsin promoter bearing a copy of FUGW.9 FUGW was a gift from David Baltimore (Addgene plasmid # 14883; RRID:\nAddgene_14883).10 This construct was designated as pF(UG) hSyn HaloTag-TEV-4×GS-msGFP- […]\nHEK293T cell culture. HEK293T cells (ATCC) were passaged before 80% confluency by trypsinization (Corning; 25-053-CI) and trituration. The cell suspension was then plated on glass coverslips (Warner instruments; 64-0734, CS-18R17) coated with poly-D-lysine (Thermofisher; ICN10269491) and cultured in Dulbecco's modified Eagle medium (DMEM; ThermoFisher; 11965-118) supplemented with 10% (v/v) fetal bovine serum (FBS, Atlanta Biological) and penicillin/streptomycin (pen/strep; ThermoFisher; MT-30-001-CI) at 37 °C in a humidified 5% (v/v) CO2 environment following ATCC guidelines. These HEK293T cells were tested for mycoplasma contamination using the Universal Mycoplasma Detection Kit (ATCC; 30-1012K) and validated using Short Tandem Repeat profiling by ATCC (ATCC; 135-XV) within the previous year or were from newly purchased stock from ATCC. HEK293T cells were transfected with pF(UG) hSyn HaloTag-TEV-4×GS-msGFP-mito using a standard calcium phosphate protocol11 or using lipofectamine LTX reagent (ThermoFisher; 15338100). We note that this plasmid is optimized for lentivirus-mediated expression, but robust expression in HEK293T cells […]\nHEK293T labeling and fluorescence microscopy. One day after HEK293T cell transfection, the GFP fluorescence signal was confirmed, and HaloTag ligand labeling experiments were conducted. For pulse–chase experiments, HEK293T cells were incubated with biotin-HaloTag ligand (17HTL; #G8281, Promega) at either 100 nM or 10 μM for 1 hour at 37 °C and chased with 100 nM of JF549-HaloTag ligand (2HTL). We also evaluated a commercial biotin-HaloTag ligand […]\nindicated in the product information12 and from a previous publication.13 For labeling with biotin-JF-HaloTag ligands 13HTL–16HTL, cells were incubated with 100 nM or 1 µM ligand for 0.5–2 h at 37 °C. For imaging, the coverslips containing HEK293T cells were fixed with 4% (w/v) paraformaldehyde in PBS at 37 °C for 10 min, washed with PBS (3×), and mounted on glass slides with ProLong Glass Antifade Mountant with NucBlueTM Stain (ThermoFisher; P36981). These cells were imaged using a Zeiss LSM 880 with Airyscan and a plan-apochromatic 63×/1.40 oil objective in Fast Airyscan mode. The same image acquisition settings were used for each trial and condition. Images were then processed with automatic Airyscan deconvolution settings. For quantitation of labeling intensity, ROIs were drawn surrounding individual HEK cells, and the average fluorescence ratio (JF/msGFP) from multiple cells in each condition was measured; no background subtraction was necessary. […]\nJF608-HaloTag ligand (14HTL), biotin-JF646-HaloTag ligand (15HTL), or biotin-JF635-HaloTag ligand (16HTL) for 1 h at 37 °C, washed 3× with dye-free media, then fixed with 4% paraformaldehyde in 0.1 M phosphate buffer for 15 min at 37 °C. Fixed cells were then washed 3× in 1× PBS and incubated with Hoechst 33342 (5µg/mL) for 15 min at 22 °C as a nuclear counterstain. Airyscan imaging was performed on a Zeiss LSM 980 with Airyscan 2 confocal microscope using a Plan APO 63×/1.4 oil DIC M27 objective. The same acquisition settings were used for all constructs labeled with 13HTL–16HTL. These single plane images were bulk processed in ZEN Blue (Zeiss) with automatic Airyscan settings.\nDye loading kinetics. Live U2OS.H2B.HaloTag stable cells were labeled over a time course of […]", "values": [
      {"smiles": "C[Si]1(C)c2cc(N3CC(F)C3)ccc2C2(OC(=O)c3ccc(C(=O)NCCOCCOCCCCCCCl)cc32)c2ccc(N3CC(F)C3)cc21", "note": "[6HTL, JF635–HaloTag ligand, reference compound]", "Pearson's correlation coefficient between rhodamine and GFP signals": 0.92},
      {"smiles": "O=C(CCCCC1SCC2NC(=O)NC21)NCCOCCOCCNC(=O)C1C[N+](=c2ccc3c(-c4cc(C(=O)NCCOCCOCCCCCCCl)ccc4C(=O)[O-])c4ccc(N5CCC5)cc4oc-3c2)C1", "note": "(stereo not drawn) [13HTL, biotin–JF549–HaloTag ligand]", "intracellular labeling by live-cell imaging": "low intracellular signal"},
      {"smiles": "C[Si]1(C)C2=CC(=[N+]3CC(C(=O)NCCOCCOCCNC(=O)CCCC[C@@H]4SC[C@@H]5NC(=O)N[C@@H]54)C3)C=CC2=C(c2cc(C(=O)NCCOCCOCCCCCCCl)ccc2C(=O)[O-])c2ccc(N3CCC3)cc21", "note": "(stereo partly drawn) [15HTL, biotin–JF646–HaloTag ligand]", "Pearson's correlation coefficient between rhodamine and GFP signals": 0.89, "intracellular labeling by live-cell imaging": "robust labeling and colocalization with mitochondrial-localized GFP"},
      {"smiles": "C[Si]1(C)C2=CC(=[N+]3CC(F)(C(=O)NCCOCCOCCNC(=O)CCCC[C@@H]4SC[C@@H]5NC(=O)N[C@@H]54)C3)C=CC2=C(c2cc(C(=O)NCCOCCOCCCCCCCl)ccc2C(=O)[O-])c2ccc(N3CC(F)C3)cc21", "note": "(stereo partly drawn) [16HTL, biotin–JF635–HaloTag ligand]", "Pearson's correlation coefficient between rhodamine and GFP signals": 0.87, "intracellular labeling by live-cell imaging": "robust labeling and colocalization with mitochondrial-localized GFP"}
    ]}
  ]
}
